In the supplement of paper PMC10307832:

What was measured:
Experiment in all cases: relative viability (nuclei count vs DMSO), 5 days (fraction); higher = more cells survive
CAL-12T = test system: CAL-12T
Outline: (§1)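 Cells from lung cancer lines were seeded into 1536-well plates and, one day later, dosed by pin tool. Treatments were either a single drug or a fixed dose of an anchor drug with five library-drug doses (not always all listed) in √10 steps. After 5 days, nuclei were stained in a one-step fixation (final 0.05% Triton X-100, 1% formaldehyde, 1 ug/ml Hoechst) and counted on 4× images, and relative viability is the treated-to-vehicle nuclei ratio, as the median of duplicate plates.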

LK-2 = test system: LK-2
Outline: as §1

NCI-H1623 = test system: NCI-H1623
Outline: as §1

NCI-H1650 = test system: NCI-H1650
Outline: as §1

NCI-H522 = test system: NCI-H522
Outline: as §1

A549 = test system: A549
Outline: as §1

Calu-6 = test system: Calu-6
Outline: as §1

EBC-1 = test system: EBC-1
Outline: as §1

IA-LM = test system: IA-LM
Outline: as §1

NCI-H1299 = test system: NCI-H1299
Outline: as §1

NCI-H1648 = test system: NCI-H1648
Outline: as §1

NCI-H1703 = test system: NCI-H1703
Outline: as §1

C=C1C(=O)O[C@@H](CCCCCCCC)[C@@H]1C(=O)O [C-75] + CCNC(=O)c1noc(-c2cc(C(C)C)c(O)cc2O)c1-c1ccc(CN2CCOCC2)cc1 [Luminespib] (partner 0.01 µM)
relative viability (CAL-12T; first compound 0.08 µM): 0.898 | relative viability (CAL-12T; first compound 0.253 µM): 0.365 | relative viability (CAL-12T; first compound 0.8 µM): 0.178 | relative viability (CAL-12T; first compound 2.53 µM): 0.405 | relative viability (CAL-12T; first compound 8 µM): 0.376 | relative viability (LK-2; first compound 0.08 µM): 0.193 | relative viability (LK-2; first compound 0.253 µM): 0.195 | relative viability (LK-2; first compound 0.8 µM): 0.191 | relative viability (LK-2; first compound 2.53 µM): 0.185 | relative viability (LK-2; first compound 8 µM): 0.202 | relative viability (NCI-H1623; first compound 0.08 µM): 0.436 | relative viability (NCI-H1623; first compound 0.253 µM): 0.536 | relative viability (NCI-H1623; first compound 0.8 µM): 0.585 | relative viability (NCI-H1623; first compound 2.53 µM): 0.505 | relative viability (NCI-H1623; first compound 8 µM): 0.475 | relative viability (NCI-H1650; first compound 0.08 µM): 0.215 | relative viability (NCI-H1650; first compound 0.253 µM): 0.194 | relative viability (NCI-H1650; first compound 2.53 µM): 0.141 | relative viability (NCI-H1650; first compound 8 µM): 0.211 | relative viability (NCI-H522; first compound 0.08 µM): 1.06 | relative viability (NCI-H522; first compound 0.253 µM): 1.04 | relative viability (NCI-H522; first compound 0.8 µM): 1.06 | relative viability (NCI-H522; first compound 2.53 µM): 0.904 | relative viability (NCI-H522; first compound 8 µM): 0.911

NC(=O)Nc1cc(-c2cccc(F)c2)sc1C(=O)N[C@H]1CCCNC1 [AZD7762] + O=C(c1cc(Cc2n[nH]c(=O)c3ccccc23)ccc1F)N1CCN(C(=O)C2CC2)CC1 [Olaparib] (partner 8 µM)
relative viability (A549; first compound 0.01 µM): 0.37 | relative viability (A549; first compound 0.03162 µM): 0.387 | relative viability (A549; first compound 0.1 µM): 0.381 | relative viability (A549; first compound 0.3162 µM): 0.481 | relative viability (A549; first compound 1 µM): 0.155 | relative viability (CAL-12T; first compound 0.01 µM): 0.908 | relative viability (CAL-12T; first compound 0.03162 µM): 0.756 | relative viability (CAL-12T; first compound 0.1 µM): 0.865 | relative viability (CAL-12T; first compound 0.3162 µM): 0.489 | relative viability (CAL-12T; first compound 1 µM): 0.2 | relative viability (Calu-6; first compound 0.01 µM): 0.636 | relative viability (Calu-6; first compound 0.03162 µM): 0.47 | relative viability (Calu-6; first compound 0.1 µM): 0.375 | relative viability (Calu-6; first compound 0.3162 µM): 0.166 | relative viability (Calu-6; first compound 1 µM): 0.109 | relative viability (EBC-1; first compound 0.01 µM): 0.848 | relative viability (EBC-1; first compound 0.03162 µM): 0.915 | relative viability (EBC-1; first compound 0.1 µM): 0.872 | relative viability (EBC-1; first compound 0.3162 µM): 0.717 | relative viability (EBC-1; first compound 1 µM): 0.451 | relative viability (IA-LM; first compound 0.01 µM): 1.07 | relative viability (IA-LM; first compound 0.03162 µM): 0.796 | relative viability (IA-LM; first compound 0.1 µM): 0.891 | relative viability (IA-LM; first compound 0.3162 µM): 0.655 | relative viability (IA-LM; first compound 1 µM): 0.171 | relative viability (LK-2; first compound 0.01 µM): 0.789 | relative viability (LK-2; first compound 0.03162 µM): 1 | relative viability (LK-2; first compound 0.1 µM): 0.729 | relative viability (LK-2; first compound 0.3162 µM): 0.623 | relative viability (LK-2; first compound 1 µM): 0.435 | relative viability (NCI-H1299; first compound 0.01 µM): 1.02 | relative viability (NCI-H1299; first compound 0.03162 µM): 1 | relative viability (NCI-H1299; first compound 0.1 µM): 0.954 | relative viability (NCI-H1299; first compound 0.3162 µM): 0.688 | relative viability (NCI-H1299; first compound 1 µM): 0.312 | relative viability (NCI-H1648; first compound 0.01 µM): 0.639 | relative viability (NCI-H1648; first compound 0.03162 µM): 0.994 | relative viability (NCI-H1648; first compound 0.1 µM): 0.751 | relative viability (NCI-H1648; first compound 0.3162 µM): 0.934 | relative viability (NCI-H1648; first compound 1 µM): 0.61 | relative viability (NCI-H1650; first compound 0.01 µM): 0.787 | relative viability (NCI-H1650; first compound 0.03162 µM): 0.863 | relative viability (NCI-H1650; first compound 0.1 µM): 0.905 | relative viability (NCI-H1650; first compound 0.3162 µM): 0.658 | relative viability (NCI-H1650; first compound 1 µM): 0.23 | relative viability (NCI-H1703; first compound 0.01 µM): 0.305 | relative viability (NCI-H1703; first compound 0.03162 µM): 0.214 | relative viability (NCI-H1703; first compound 0.1 µM): 0.206 | relative viability (NCI-H1703; first compound 0.3162 µM): 0.168 | relative viability (NCI-H1703; first compound 1 µM): 0.12 | relative viability (NCI-H522; first compound 0.01 µM): 0.711 | relative viability (NCI-H522; first compound 0.03162 µM): 0.631 | relative viability (NCI-H522; first compound 0.1 µM): 0.676 | relative viability (NCI-H522; first compound 0.3162 µM): 0.59 | relative viability (NCI-H522; first compound 1 µM): 0.632
